{"source": "patent US20240108740A1", "about": "“THERAPEUTIC COMPOSITIONS INCLUDING SPN10 AND USES THEREOF” (Stealth BioTherapeutics Inc., priority 2022, published 2024)", "key": {"[1]": {"test_system": "New Zealand white rabbits", "test": "Acute myocardial infarction injury in a rabbit model", "format": "in vivo", "settings": "IV infusion, 30-minute ischemia, 3 hours post-reperfusion", "procedure": "New Zealand white rabbits will be used in this study. The rabbits will be males and >10 weeks in age. Environmental controls in the animal rooms will be set to maintain temperatures of 61° to 72° F. and relative humidity between 30% and 70%. Room temperature and humidity will be recorded hourly, and monitored daily. There will be approximately 10-15 air exchanges per hour in the animal rooms. Photoperiod will be 12-hr light/12-hr dark (via fluorescent lighting) with exceptions as necessary to accommodate dosing and data collection. Routine daily observations will be performed. Harlan Teklad, Certified Diet (2030C), rabbit diet will be provided approximately 180 grams per day from arrival to the facility. In addition, fresh fruits and vegetables will be given to the rabbit 3 times a week. […]\nIn all cases, treatments will be started approximately 30 minutes after the onset of a 30-minute ischemic insult (coronary occlusion) and continued for up to 3 hours following reperfusion. In all cases, cardiovascular function will be monitored both prior to and during ischemia, as well as for up to 180 minutes (3 hours) post-reperfusion. The experiments will be terminated 3 hours post-reperfusion (end of study); irreversible myocardial injury (infarct size by histomorphometery) at this time-point will be evaluated, and will be the primary-end-point of the study."}, "Guinea pig hearts": {"test_system": "Guinea pig hearts", "test": "Example 14: ischemia-reperfusion-induced myocardial stunning", "procedure": "Guinea pig hearts will be rapidly isolated, and the aorta will be cannulated in situ and perfused in a retrograde fashion with an oxygenated Krebs-Henseleit at constant pressure (40 cm H2O). Contractile force will be measured with a small hook inserted into the apex of the left ventricle and a silk ligature connected to a force-displacement transducer. Coronary flow will be measured by timing the collection of pulmonary artery effluent.\nHearts will be perfused with peptide conjugates (1-100 nM); aromatic-cationic peptides (an equivalent molar dose of aromatic-cationic peptide based on the concentration of the aromatic-cationic peptide administered in the peptide conjugate treatment group); SPN10(s) (an equivalent molar dose of SPN10 based on the concentration of SPN10 administered in the peptide conjugate treatment group); or SPN10(s) in combination with aromatic-cationic peptides (e.g., an equivalent molar dose of SPN10 based on the concentration of SPN10 administered in the peptide conjugate treatment group and an equivalent molar dose of aromatic-cationic peptide based on the concentration of aromatic-cationic peptide administered in the peptide conjugate treatment group) for 30 minutes and then subjected to 30 minutes of global ischemia. Reperfusion will […] be performed using perfusion buffer lacking both peptide conjugates and SPN10(s) (with or without aromatic-cationic peptides)."}, "[2]": {"test_system": "isolated mouse liver mitochondria", "test": "Example 11: mitochondrial respiration and membrane potential", "procedure": "Isolated mouse liver mitochondria will be incubated with 100 pM of SPN10(s) (with or without aromatic-cationic peptides) or peptide conjugates, and oxygen consumption will be measured. […] Mitochondrial membrane potential will be measured using TMRM. It is anticipated that addition of mitochondria will result in immediate quenching of the TMRM signal, which will be readily reversible by the addition of FCCP, indicating mitochondrial depolarization. It is anticipated that the addition of Ca^2+ (150 μM) will result in immediate mitochondrial depolarization followed by progressive loss of quenching indicative of MPT."}, "animal models of ALF": {"test_system": "animal models of ALF", "test": "Example 44: animal models of acute liver failure (ALF)", "settings": "in vivo", "excerpt": "Suitable animal models of ALF utilize surgical procedures, toxic liver injury, or a combination thereof. See Belanger & Butterworth, Metabolic Brain Disease, 20:409-423 (2005). Peptide conjugates, aromatic-cationic peptides, SPN10(s) with or without aromatic-cationic peptides or control vehicle will be administered prior to or simultaneously with a toxic or surgical insult. Hepatic function will be assessed by measuring serum hepatic enzymes (transaminases, alkaline phosphatase), serum bilirubin, serum ammonia, serum glucose, serum lactate, or serum creatinine. Efficacy of SPN10(s) (with or without aromatic-cationic peptides) or conjugates in preventing ALF will be indicated by a reduction in the occurrence or severity of the ALF as indicated by the above markers, as compared to control subjects."}}, "note": "Residues, ends and D or L forms follow the SMILES beside them.", "data": [{"compound": "N=C(N)NCCC[C@H](NC(=O)[C@@H](N)Cc1c[nH]c2ccccc12)C(=O)N[C@@H](Cc1c[nH]c2ccccc12)C(=O)N[C@@H](CCCCN)C(N)=O", "note": "[SPN10, H-L-Trp-L-Arg-L-Trp-L-Lys-NH2] (H-WRWK-NH2)", "values": [{"measurement": "infarct size compared to the vehicle control group", "setting": "[1]", "value": "decreased infarct size"}, {"measurement": "cardiac stunning", "setting": "Guinea pig hearts", "value": "complete inhibition of cardiac stunning"}, {"measurement": "coronary flow during reperfusion", "setting": "Guinea pig hearts", "value": "well-sustained throughout the reperfusion period"}, {"measurement": "heart rate", "setting": "Guinea pig hearts", "value": "no decrease in heart rate"}, {"measurement": "contractile force during the reperfusion period", "setting": "Guinea pig hearts; 30 minutes perfusion, 30 minutes global ischemia", "value": "improved compared to untreated controls"}, {"measurement": "respiratory ratio (state 3/state 4)", "setting": "[2]; 100 pM", "value": 6.2, "unit": "versus 6.0"}, {"measurement": "mitochondrial depolarization or MPT by the compound alone (TMRM)", "setting": "[2]; even at 200 μM", "value": "will not cause mitochondrial depolarization or MPT"}, {"measurement": "reduced liver function after toxic or surgical liver insult", "setting": "animal models of ALF", "value": "attenuate or prevent these effects"}]}]}
